Format in all cases: cell-based
In one experiment the target is T1, adenosine A1 receptor (Homo sapiens, UniProt P30542).
T1 construct: expressed in transfected cells; host or cells: CHO (Chinese Hamster Ovary)
T1 sequence (P30542 1-326): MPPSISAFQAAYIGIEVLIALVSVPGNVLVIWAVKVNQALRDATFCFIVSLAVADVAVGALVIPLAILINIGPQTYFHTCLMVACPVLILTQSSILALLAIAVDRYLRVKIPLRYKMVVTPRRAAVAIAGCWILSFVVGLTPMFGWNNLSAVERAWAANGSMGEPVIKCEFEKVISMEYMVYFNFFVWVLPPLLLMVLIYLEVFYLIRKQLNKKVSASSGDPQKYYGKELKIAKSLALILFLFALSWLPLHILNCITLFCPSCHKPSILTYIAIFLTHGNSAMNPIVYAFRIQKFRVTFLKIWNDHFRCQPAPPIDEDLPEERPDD
As to the kind of experiment: Indirect determination of adenosine agonism by way of gene expression (luciferase reporter), A1 cells. The conditions noted are these: CHO cells stably transfected with A1 receptor cDNA; 1 μM forskolin; 50% inhibition of luciferase answer. The source says: (§1) B-1. Indirect Determination of the Adenosine Agonism by Way of Gene Expression
(§2) Cells of the CHO (Chinese Hamster Ovary) permanent line are transfected stably with the cDNA for the adenosine receptor subtypes A1, A2a and A2b. The adenosine A1 receptors are coupled to the adenylate cyclase by way of Gi proteins, while the adenosine A2a and A2b receptors are coupled by way of Gs proteins. In correspondence with this, the formation of cAMP in the cell is inhibited or stimulated, respectively. After that, expression of the luciferase is modulated by way of a cAMP-dependent promoter. The luciferase test is optimized, with the aim of high sensitivity and reproducibility, low variance and good suitability for implementation on a robot system, by varying several test parameters, such as cell density, duration of the growth phase and the test incubation, forskolin concentration and medium composition. The following test protocol is used for pharmacologically characterizing cells and for the robot-assisted substance screening:
(§3) The stock cultures are grown, at 37° C. and under 5% CO2, in DMEM/F12 medium containing 10% FCS (fetal calf serum) and in each case split 1:10 after 2-3 days. The test cultures are seeded in 384-well plates with 2000 cells per well and grown at 37° C. for approx. 48 hours. The medium is then replaced with a physiological sodium chloride solution (130 mM sodium chloride, 5 mM potassium chloride, 2 mM calcium chloride, 20 mM HEPES, 1 mM magnesium chloride hexahydrate, 5 mM sodium bicarbonate, pH 7.4). The substances to be tested, which are dissolved in DMSO, are pipetted into the test cultures (maximum final concentration of DMSO in the test mixture: 0.5%) in a dilution series of from 5×10^−11M to 3×10^−6M (final concentration). 10 minutes later, forskolin is added to the A1 cells and all the cultures are subsequently incubated at 37° C. for four hours. After that, 35 μl of a solution which is composed of 50% lysis reagent (30 mM disodium hydrogenphosphate, 10% glycerol, 3% TritonX100, 25 mM TrisHCl, 2 mM dithiotreitol (DTT), pH 7.8) and 50% luciferase substrate solution (2.5 mM ATP, 0.5 mM luciferin, 0.1 mM coenzyme A, 10 mM tricine, 1.35 mM magnesium sulfate, 15 mM DTT, pH 7.8) are added to the test cultures, which are shaken for approx. 1 minute and the luciferase activity is measured using a camera system. The EC50 values are determined, i.e., the concentrations at which 50% of the luciferase answer is inhibited in the case of the A1 cell, and, respectively, 50% of the maximum stimulation with the corresponding substance is achieved in the case of the A2b and A2a cells. […] Pharmacol., 357 (1998), 1-9).
(§4) Table 1 below lists the EC50 values of representative working examples for the receptor stimulation on adenosine A1, A2a and A2b receptor subtypes: […]

In the next experiment the target is T2, adenosine A2a receptor (Homo sapiens, UniProt P29274).
T2 construct: expressed in transfected cells; host or cells: CHO (Chinese Hamster Ovary)
The experiment in a line: Indirect determination of adenosine agonism by way of gene expression (luciferase reporter), A2a cells. To be noted: CHO cells stably transfected with A2a receptor cDNA; 50% of maximum stimulation.
Excerpt: as §1, §2, §3, §4
On the technique in general: In a reporter assay the amount or activity of a reporter protein is the signal.

Another experiment addresses T3, adenosine A2b receptor (Homo sapiens, UniProt P29275).
T3 construct: expressed in transfected cells; host or cells: CHO (Chinese Hamster Ovary)
T3 sequence (P29275 1-332): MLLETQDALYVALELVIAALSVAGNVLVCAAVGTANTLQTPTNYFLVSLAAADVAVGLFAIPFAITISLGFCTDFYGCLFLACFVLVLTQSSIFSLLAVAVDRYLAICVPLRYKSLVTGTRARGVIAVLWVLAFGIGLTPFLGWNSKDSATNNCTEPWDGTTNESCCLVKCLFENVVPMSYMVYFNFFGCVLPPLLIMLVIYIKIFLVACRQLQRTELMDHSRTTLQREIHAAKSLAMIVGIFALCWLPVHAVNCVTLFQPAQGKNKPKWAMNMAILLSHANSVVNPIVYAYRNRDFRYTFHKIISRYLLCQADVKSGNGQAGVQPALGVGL
The experiment in a line: Indirect determination of adenosine agonism by way of gene expression (luciferase reporter), A2b cells. To be noted: CHO cells stably transfected with A2b receptor cDNA; 50% of maximum stimulation.
Excerpt: as §1, §2, §3, §4

T2 sequence (P29274 whole entry): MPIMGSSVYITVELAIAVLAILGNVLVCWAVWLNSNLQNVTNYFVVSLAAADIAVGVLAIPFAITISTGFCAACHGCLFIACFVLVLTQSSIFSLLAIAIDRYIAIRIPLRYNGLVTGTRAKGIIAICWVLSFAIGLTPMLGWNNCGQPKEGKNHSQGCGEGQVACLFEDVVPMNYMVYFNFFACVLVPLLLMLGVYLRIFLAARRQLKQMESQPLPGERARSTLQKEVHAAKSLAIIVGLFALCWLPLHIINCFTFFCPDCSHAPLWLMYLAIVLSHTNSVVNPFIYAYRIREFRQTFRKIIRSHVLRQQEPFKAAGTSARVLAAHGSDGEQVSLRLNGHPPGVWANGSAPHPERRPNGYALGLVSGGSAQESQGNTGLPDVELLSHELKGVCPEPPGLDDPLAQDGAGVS

Usually EC50 stands for the concentration at which the effect is half-maximal. Higher therefore signals a need for much substance. On to `Cc1nc(N)c2c(-c3ccc(OCCO)cc3)c(C#N)c(SCc3csc(-c4ccc(Cl)cc4)n3)nc2n1` [Example 9, 4-Amino-7-({[2-(4-chlorophenyl)-1,3-thiazol-4-yl]methyl}sulfanyl)-5-[4-(2-hydroxyethoxy)phenyl]-2-methylpyrido[2,3-d]pyrimidine-6-carbonitrile], for which the figures for the EC50 at adenosine A1 receptor, at adenosine A2a receptor and on adenosine A2b receptor were less than 0.04 nM, 68 nM and 38 nM, respectively.

Consider `N#Cc1c(SCc2csc(-c3ccc(Cl)cc3)n2)nc2c(c1-c1ccc(OCCO)cc1)C(=O)CCC2` [Example 2, 2-({[2-(4-Chlorophenyl)-1,3-thiazol-4-yl]methyl}thio)-4-[4-(2-hydroxyethoxy)phenyl]-5-oxo-5,6,7,8-tetrahydroquinoline-3-carbonitrile], for which the concentration for a half-maximal effect (EC50) is 7.9 nM at adenosine A1 receptor, greater than 3000 nM at adenosine A2a receptor and 207 nM on adenosine A2b receptor.

For `N#Cc1c(SCc2csc(-c3ccc(Cl)cc3)n2)nc2[nH]c(=O)[nH]c(=O)c2c1-c1ccc(OCCO)cc1` [Example 12, 7-({[2-(4-Chlorophenyl)-1,3-thiazol-4-yl]methyl}sulfanyl)-5-[4-(2-hydroxyethoxy)phenyl]-2,4-dioxo-1,2,3,4-tetrahydropyrido[2,3-d]pyrimidine-6-carbonitrile], the EC50 worked out at 2 nM at adenosine A1 receptor, 2000 nM at adenosine A2a receptor and 880 nM at adenosine A2b receptor.

For the compound `N#Cc1c(SCc2csc(-c3ccc(Cl)cc3)n2)nc2c(c1-c1ccc(OC[C@@H](O)CO)cc1)C(=O)CCC2` [Example 3, 2-({[2-(4-Chlorophenyl)-1,3-thiazol-4-yl]methyl}thio)-4-(4-{[(2S)-2,3-dihydroxypropyl]oxy}-phenyl)-5-oxo-5,6,7,8-tetrahydroquinoline-3-carbonitrile], the EC50 on adenosine A1 receptor was 2.6 nM; on adenosine A2a receptor, greater than 3000 nM; at adenosine A2b receptor, 66 nM.

As to `Cc1nc2nc(SCc3csc(-c4ccc(Cl)cc4)n3)c(C#N)c(-c3ccc(OCCO)cc3)c2c(=O)[nH]1` [Example 10, 7-({[2-(4-Chlorophenyl)-1,3-thiazol-4-yl]methyl}thio)-5-[4-(2-hydroxyethoxy)phenyl]-2-methyl-4-oxo-3,4-dihydropyrido[2,3-d]pyrimidine-6-carbonitrile], the EC50 at adenosine A1 receptor was determined as 0.4 nM; at adenosine A2a receptor, 1370 nM; on adenosine A2b receptor, 213 nM.

On to `COC(=O)c1ccc(-c2nc(CSc3nc4c(c(-c5ccccc5)c3C#N)CCC4)cs2)cc1` [Example 13, Methyl 4-(4-{[(3-cyano-4-phenyl-6,7-dihydro-5H-cyclopenta[b]pyridin-2-yl)sulfanyl]methyl}-1,3-thiazol-2-yl)benzoate], for which the EC50 on adenosine A1 receptor was determined as 21 nM; on adenosine A2b receptor, 1250 nM.

The record behind these values is patent publication US8618119B2, “Fused cyanopyridines and the use thereof” (Bayer Intellectual Property GmbH, priority 2007, dated 2013).
